Like-named read-outs stand apart in the source and are kept apart here.
Assays:
[1] = target: ENPP-1 (Ectonucleotide Pyrophosphatase/Phosphodiesterase 1) (Homo sapiens (Human), UniProt P22413); assay: ENPP1 inhibition assay (AMP Glo, cGAMP substrate); assay type: biochemical
[2] = tested on: IP-10 release in differentiated THP-1 cells; assay: IP-10 cytokine release assay in THP-1 cell lines; assay type: cell-based, Human; conditions: for EC50: Homo sapiens
Protocol: Percent release of Interferon gamma-induced protein 10 (IP-10) was determined in acute monocytic leukemia (THP-1; ATCC® TIB-202™) cell line. THP-1 cells (0.2×10^6 cells/well) were differentiated using phorbol 12-myristate 13-acetate (PMA, 10 nM (final concentration); Cat #P8139, Sigma) and incubated for 24 h at 37° C., 5% CO2 in an incubator (cell culture conditions) prior to treating with serial dilutions of compounds (3 fold, 6 point dose response starting at 10 μM). After treatment with the compounds cells were further incubated for 2 h under cell culture conditions and then exposed to 2′,3′-cGAMP (c-GAMP, 1 μM (final concentration); Cat #SML 1229, Sigma). Differentiated THP-1 cells were further cultured for 24 h after which the supernatant was harvested, and ELISA was performed as per the manufacturer's protocol (BD optEIA Human IP-10 ELISA Set; Cat #550926 & 550534, BD Biosciences). Plates were read in Biotek plate reader by measuring absorbance at 450 nm.
The release of absolute IP-10 in differentiated THP-1 by compounds in the presence of cGAMP was quantified with reference to standard after subtracting blank (negative) reading from the test readings. The absolute release of IP-10 in the presence of cGAMP (1 μM) is given in the bar-graph (FIG.-1) and in the table-B2a.
The release of IP-10 in differentiated THP-1 by compounds over cGAMP induced release at four different concentrations of cGAMP (1, 5, 10 & 30 μM) was quantified with reference to standard by normalizing the blank (negative) subtracted test readings from average of cGAMP activated cells at that particular concentration. The EC50's was calculated by fitting the curve to the “four-parameter variable slope logistic model” using Prism Graph Pad.

[3] = cGAMP 20 μM substrate, ENPP1 1 nM
[4] = read-out: EC50 (μM)@ 1 μM of cGAMP, IP-10 release over cGAMP induced release, THP-1, 1 μM cGAMP
[5] = THP-1, read-out: EC50 (μM)@ 1 μM of cGAMP

Sequence of ENPP-1 (Ectonucleotide Pyrophosphatase/Phosphodiesterase 1) (P22413 whole entry): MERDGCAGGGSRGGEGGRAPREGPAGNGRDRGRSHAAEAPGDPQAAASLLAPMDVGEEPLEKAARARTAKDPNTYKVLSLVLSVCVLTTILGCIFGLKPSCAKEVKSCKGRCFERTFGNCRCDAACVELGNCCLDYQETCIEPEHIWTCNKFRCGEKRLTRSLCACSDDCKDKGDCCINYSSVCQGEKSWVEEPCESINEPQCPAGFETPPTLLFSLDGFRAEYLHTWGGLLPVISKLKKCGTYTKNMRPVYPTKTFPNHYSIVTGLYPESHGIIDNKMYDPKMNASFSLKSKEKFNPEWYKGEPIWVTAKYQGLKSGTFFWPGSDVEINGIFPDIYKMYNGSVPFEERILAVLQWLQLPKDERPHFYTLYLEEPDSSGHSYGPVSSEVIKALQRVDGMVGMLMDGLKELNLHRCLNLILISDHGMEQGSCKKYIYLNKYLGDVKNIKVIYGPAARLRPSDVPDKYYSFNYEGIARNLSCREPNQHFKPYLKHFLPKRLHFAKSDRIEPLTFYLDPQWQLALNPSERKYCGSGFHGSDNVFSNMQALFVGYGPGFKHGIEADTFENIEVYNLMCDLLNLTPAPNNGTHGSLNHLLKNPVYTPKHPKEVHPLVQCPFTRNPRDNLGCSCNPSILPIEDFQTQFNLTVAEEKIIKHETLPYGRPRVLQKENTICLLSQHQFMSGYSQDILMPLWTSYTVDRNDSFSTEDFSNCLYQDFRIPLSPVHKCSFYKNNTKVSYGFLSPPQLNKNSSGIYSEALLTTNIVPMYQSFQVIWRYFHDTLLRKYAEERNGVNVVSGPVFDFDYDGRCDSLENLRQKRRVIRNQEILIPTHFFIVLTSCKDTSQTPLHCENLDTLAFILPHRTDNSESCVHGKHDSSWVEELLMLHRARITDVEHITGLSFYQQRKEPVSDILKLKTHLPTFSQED

CCOc1cccc2c(N3CC(CCNS(N)(=O)=O)C3)ncnc12 [Compound 1.19, 4-(3-(2-sulfamoylaminoethyl)azetidine-1-yl)-8-ethoxyquinazoline]
IC50 [1, 3]: 0.084 µM | EC50 [2, 4]: < 0.12 µM

COc1cc2nc(C)nc(N3CC(CCNS(N)(=O)=O)C3)c2cc1OC [Compound 1.17, 4-(3-(2-sulfamoylaminoethyl)azetidine-1-yl)-6,7-dimethoxy-2-methylquinazoline]
IC50 [1]: 0.057 µM | EC50 [2, 5]: 0.129 µM

COc1cc2ncnc(N3CC(C)(CCNS(N)(=O)=O)C3)c2cc1OC [Compound 1.22, 4-(3-Methyl-3-(2-sulfamoylaminoethyl)azetidine-1-yl)-6,7-dimethoxyquinazoline]
IC50 [1, 3]: 0.009 µM | EC50 [2, 4]: 0.49 µM

COc1cc2ncnc(N3CC4(CC(N(C)S(N)(=O)=O)C4)C3)c2cc1OC [Compound 1.46, N-[2-(6,7-di-methoxyquinazoline-4-yl)-2-azaspiro[3.3]hept-6-yl]-N-methylsulfuric diamide]
IC50 [1, 3]: 0.019 µM | EC50 [2, 4]: 0.912 µM

COc1cc2ncnc(N3CC(CCCNS(N)(=O)=O)C3)c2cc1OC [Compound 1.69, 4-3-(3-sulfamoylaminopropyl)azetidin-1-yl-6,7-dimethoxyquinazoline]
EC50 [2, 4]: 0.724 µM

Nc1nc2c(ncn2[C@@H]2O[C@@H]3COP(=O)(O)O[C@H]4[C@@H](O)[C@H](n5cnc6c(N)ncnc65)O[C@@H]4COP(=O)(O)O[C@@H]2[C@@H]3O)c(=O)[nH]1 [CGAMP, 2′,3′-cGAMP, reference compound]
Percent release IP-10 (Absolute) ([2]; cGAMP (1 μM) alone, differentiated THP-1): 5.6%

COc1cc2ncnc(N3CC4(CC(C(=O)NO)C4)C3)c2cc1OC [Compound 1.63, 2-(6,7-dimethoxyquinazolin-4-yl)-N-hydroxy-2-azaspiro[3.3]heptane-6-carboxamide]
EC50 [2, 4]: < 0.12 µM

COc1cc2ncnc(N3CC(CCN(C)S(N)(=O)=O)C3)c2cc1OC [Compound 1.47, 4-(3-(2-sulfamoylmethylaminoethyl)azetidine-1-yl)-6,7-di-methoxyquinazoline]
EC50 [2, 4]: 19.9 µM

COc1cc2ncnc(N3CC(CCNC(C)=O)C3)c2cc1OC [Compound 1.7, N-(2-[1-(6,7-dimethoxyquinazolin-4-yl)azetidin-3-yl]ethyl)acetamide]
EC50 [2, 5]: > 30 µM

Cc1cc(Cl)n2ncnc(N3CC4(CC(N(C5CC5)S(N)(=O)=O)C4)C3)c12 [Compound 1.81, N-(2-(7-chloro-5-methylpyrrolo[2,1-f][1,2,4]triazin-4-yl)-2-azaspiro[3.3]heptan-6-yl)-N-cyclopropylsulfamamide]
IC50 [1, 3]: 0.245 µM

Cc1cc(Cl)n2ncnc(N3CC4(CC(N(CC(C)(C)C)S(N)(=O)=O)C4)C3)c12 [Compound 1.113, N-(2-(7-chloro-5-methylpyrrolo[2,1-f][1,2,4]triazin-4-yl)-2-azaspiro[3.3]heptan-6-yl)-N-neopentylsulfamamide]
IC50 [1, 3]: 0.169 µM

Cc1cc(Cl)n2ncnc(N3CC4(CC(N(CC(C)(F)F)S(N)(=O)=O)C4)C3)c12 [Compound 1.128]
IC50 [1, 3]: 0.03 µM

COc1cc(F)cc2c(N3CC(CCNS(N)(=O)=O)C3)ncnc12 [Compound 1.38]
IC50 [1, 3]: > 3 µM

Cc1cc(Cl)n2ncnc(N3CC4(CC(N(CC(O)C(F)(F)F)S(N)(=O)=O)C4)C3)c12 (centres unmarked) [Compound 1.120, N-(2-(7-chloro-5-methylpyrrolo[2,1-f][1,2,4]triazin-4-yl)-2-azaspiro[3.3]heptan-6-yl)-N-(3,3,3-trifluoro-2-hydroxypropyl)sulfamamide]
IC50 [1, 3]: 0.018 µM

COc1ccc2c(N3CC4(CC(N(C)S(N)(=O)=O)C4)C3)cnnc2c1 [Compound 1.87, N-(2-(7-methoxycinnolin-4-yl)-2-azaspiro[3.3]heptan-6-yl)-N-methylsulfamide]
IC50 [1, 3]: 0.024 µM

CCc1nc(N2CC(CCNS(N)(=O)=O)C2)c2cc(OC)c(OC)cc2n1 [Compound 1.61, 2-ethyl-6,7-dimethoxy-4-[3-[2-(sulfamoylamino)ethyl]azetidin-1-yl]quinazoline]
IC50 [1, 3]: 0.097 µM

— patent publication US20240352046A1, “ECTONUCLEOTIDE PYROPHOSPHATASE-PHOSPHODIESTERASE-1 (ENPP1) INHIBITORS AND USES THEREOF” (1cBio, Inc., priority 2020, published 2024)
